Reference: publication PMC6269977, “Chemistry and Antiviral Activity of Arrabidaea pulchra (Bignoniaceae)” (Molecules, 2013)
Values after ≈ are worked out from the molar mass of the structure shown.

Experiments:
[1] = test system: Human herpesvirus 1 (HSV-1); assay: microbe, parasite or virus in culture; assay type: cell-based; conditions: for EC50: Human alphaherpesvirus 1; for EC50 / HSV-1 EC50: viral titer TCID50/mL 2.5 × 10^6 in 48 h, NA = no activity in the assayed concentrations
[2] = test system: Vaccinia virus Western Reserve (VACV-WR); assay type: cell-based
[3] = test system: Murine encephalomyocarditis virus (EMCV); assay type: cell-based; conditions: viral titer TCID50/mL 1.0 × 10^6 in 48 h; NA = no activity in the assayed concentrations
Dengue virus 2 (DENV-2) = assay: microbe, parasite or virus in culture; assay type: cell-based; conditions: DENV2, viral titer TCID50/mL 1.0 × 10^4 in 72 h
in vitro [4] = conditions: African green monkey
in vitro [5] = conditions: rhesus monkey
[6] = test system: respiratory syncytial virus (RSV); conditions: isolated from Markhamia lutea; cited from earlier work
HSV-1 = conditions: cited from earlier work
HSV-2 = conditions: cited from earlier work

In the case of `C[C@H]1[C@H](C)CC[C@]2(C(=O)O)CC[C@]3(C)C(=CC[C@@H]4[C@@]5(C)CC[C@H](O)C(C)(C)[C@@H]5CC[C@]43C)[C@H]12` [AP 3, ursolic acid], the EC50 [1] is reported as 6.2 ± 0.1 µg/mL (≈ 13.6 µM), the HSV-1 virus inhibition ([1]; at concentrations as low 2 μg/mL, Figure 4A) is reported as 50% and the “HSV-1 EC50” value [1] is reported as “low activity”. For the same compound, the “VACV-WR EC50” value [2] was “not active”, the “EMCV EC50” value [3] was “not active” and the EC50 (Dengue virus 2 (DENV-2)) was 3.2 µg/mL (≈ 7.01 µM). It also gave a CC50 (in vitro [4]) of 8.1 ± 0.9 µg/mL (≈ 17.7 µM) and a CC50 (in vitro [5]) of 9.9 ± 1.3 µg/mL (≈ 21.7 µM).
For `Nc1nc2c(ncn2COCCO)c(=O)[nH]1` [Acyclovir, reference compound], the EC50 [1] was 40 µg/mL (≈ 178 µM).
For `C[C@@H]1O[C@@H](O[C@@H]2[C@@H](O)[C@H](OCCc3ccc(O)c(O)c3)O[C@H](CO)[C@H]2OC(=O)/C=C/c2ccc(O)c(O)c2)[C@H](O)[C@H](O)[C@H]1O` [AP 1, verbascoside], the “HSV-1 EC50” value [1] was “no effect was observed”, the “VACV-WR EC50” value [2] was “not active” and the “EMCV EC50” value [3] was “not active”. The EC50 (Dengue virus 2 (DENV-2)) was 3.4 ± 0.4 µg/mL (≈ 5.44 µM), the “RSV EC50” value [6] was 0.80 µg/mL and the “HSV-1 EC50” value (HSV-1) was 58.0 µg/mL. The anti-herpes activity (HSV-1; previous report) was “had not shown anti-herpes activity”, the “HSV-2 EC50” value (HSV-2) was 8.9 µg/mL and the CC50 (in vitro [4]) was greater than 200 µg/mL. For the same compound, the CC50 (in vitro [5]) was 12.9 ± 1.1 µg/mL (≈ 20.7 µM).
